US20260250275A1, “HETEROARYL ENHANCERS OF THE PARTICULATE GUANYLYL CYCLASE RECEPTOR A” (University of Florida Research Foundation, Incorporated, priority 2022, published 2026)
pEC50: −log10 of the molar value. Like-named read-outs stand apart in the source and are kept apart here. Values belong to the compound of their own block, whether it stands above or below them.

What was measured:
human GC-A = target: T1, human GC-A (Homo sapiens, UniProt P16066); test: cGMP potentiation (HTRF) in human GC-A overexpressing HEK293 cells with EC20 ANP; format: cell-based; conditions: for Emax: HEK293, 100% = saturating ANP (10 nM), 0% = EC20 ANP; for LLE (lipophilic ligand efficiency = EC50−cLogP): calculated from EC50 and cLogP
T1 construct: host or cells: HEK293
T1 sequence (P16066 33-1061): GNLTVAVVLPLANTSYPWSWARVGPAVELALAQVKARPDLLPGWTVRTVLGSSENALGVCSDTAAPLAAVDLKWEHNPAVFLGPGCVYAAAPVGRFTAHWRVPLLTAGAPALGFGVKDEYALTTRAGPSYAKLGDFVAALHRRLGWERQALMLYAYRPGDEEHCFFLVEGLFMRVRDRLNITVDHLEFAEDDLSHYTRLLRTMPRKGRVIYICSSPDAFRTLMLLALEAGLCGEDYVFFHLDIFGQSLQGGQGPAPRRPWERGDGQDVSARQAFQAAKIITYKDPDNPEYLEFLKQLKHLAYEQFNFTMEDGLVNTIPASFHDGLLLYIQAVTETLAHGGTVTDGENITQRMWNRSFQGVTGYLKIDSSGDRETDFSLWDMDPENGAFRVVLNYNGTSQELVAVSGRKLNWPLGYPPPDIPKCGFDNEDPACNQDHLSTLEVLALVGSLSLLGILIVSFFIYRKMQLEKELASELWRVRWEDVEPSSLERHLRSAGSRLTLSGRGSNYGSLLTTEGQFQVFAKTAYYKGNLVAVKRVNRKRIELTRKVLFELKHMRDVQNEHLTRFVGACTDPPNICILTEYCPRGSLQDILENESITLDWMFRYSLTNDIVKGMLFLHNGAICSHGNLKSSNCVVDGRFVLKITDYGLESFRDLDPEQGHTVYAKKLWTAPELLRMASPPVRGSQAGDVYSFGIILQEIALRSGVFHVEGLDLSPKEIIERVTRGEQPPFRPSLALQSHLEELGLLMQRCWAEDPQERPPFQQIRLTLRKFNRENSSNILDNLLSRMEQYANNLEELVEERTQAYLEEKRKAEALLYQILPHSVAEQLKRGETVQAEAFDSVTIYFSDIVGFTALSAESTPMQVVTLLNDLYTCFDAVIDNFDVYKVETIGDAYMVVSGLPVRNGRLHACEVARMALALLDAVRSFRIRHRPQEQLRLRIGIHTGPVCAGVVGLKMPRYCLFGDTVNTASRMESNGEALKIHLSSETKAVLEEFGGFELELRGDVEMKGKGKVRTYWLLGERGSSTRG
T1 sequence (P01160 124-151 partner limits assumed): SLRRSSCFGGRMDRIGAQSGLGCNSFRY

[1] = cited from earlier work
[2] = potentiation of cGMP in presence of EC20 ANP (20 pM), Tables 1-7, read-out: EC50

pEC50 (human GC-A; [2]): 5.51 to 6.15
SMILES: N[C@@H]1CCC[C@H](C(=O)Nc2nc3c(F)cc(F)cc3s2)C1 [JUF-S12-001A]

pEC50 (human GC-A; [2]): < 5.30
SMILES: CN(C)CCN[C@@H]1CCC[C@@H](C(=O)Nc2nc3c(F)cc(F)cc3s2)C1 [JUF-S12-002]

Emax (human GC-A): 91 to 96% | pEC50 (human GC-A; [2]): 5.59 to 5.82
SMILES: CN(C)C1CCN(CC(=O)Nc2nc3c(F)cc(F)cc3s2)CC1 [JUF-S10-004]

LLE (lipophilic ligand efficiency = EC50−cLogP) (human GC-A): 2.69
SMILES: COc1ccc(-c2csc(NC(=O)C3CCCN(CCN(C)C)C3)n2)cc1 (centres unmarked) [JUF-S7-013]

Emax (human GC-A): 87 to 97%
SMILES: N[C@@H]1CCCC(C(=O)Nc2nc3c(F)cc(F)cc3s2)C1 (some centres unmarked) [JUF-S12-001A]

Emax values of internal control (FIG. 2) (human GC-A; titrated on each 384-test plate): 80-100 % response | pEC50 (human GC-A; titrated on each 384-test plate, read-out: Acceptable EC50 values of internal control (FIG. 2)): 6.22 to 6.70
SMILES: CN(C)CCN1CCCC(C(=O)Nc2nc3c(F)cc(F)cc3s2)C1 (centres unmarked) [MCUF 651, reference compound]

LLE (lipophilic ligand efficiency = EC50−cLogP) (human GC-A): 2.51
SMILES: CN(C)CCN1CCCCC1C(=O)Nc1nc2c(F)cc(F)cc2s1 (centres unmarked) [JUF-S2-003]

SMILES: CN(C)CCN1CCCC(C(=O)Nc2nc3c(F)cc(F)cc3s2)C1 (centres unmarked) [MCUF-651]
Activity in vivo [1]: active in vivo | Oral bioavailability ([1]; in vivo, po): orally bioavailable
